Experimental data as given in PMC9841524, “Structure-Based Rational Design of Small α-Helical Peptides with Broad-Spectrum Activity against Multidrug-Resistant Pathogens” (Journal of Medicinal Chemistry, 2022).
Where two headings read alike, the source gives them in different places. Where no end group is shown, it is not given here.

Experiments:
[1] = system: P. aeruginosa (ATCC 27883); assay: MIC, standard microtiter dilution (CLSI); assay type: cell-based, Pseudomonas aeruginosa; conditions: broth microdilution (CLSI), CAMHB, 37 °C, 24 h
Protocol: (§1) Description of the characteristics and growth conditions of various bacterial strains used in the study are provided in the Supporting Information (Table S3). Antibacterial susceptibility testing was carried out using a standard microtiter dilution method recommended by the clinical and laboratory standard institute (CLSI) and measured as a minimum inhibitory concentration (MIC), the lowest peptide concentration that inhibited bacterial growth. Briefly, the overnight grown cultures in the recommended broth for each bacterial strain were diluted in cation-adjusted Mueller Hinton Broth (CAMHB) to give an inoculum of 10^6 colony-forming units (CFU)/mL. A 2-fold serially diluted test peptide solution (100 μL) was added to the microtiter plates. After adding bacterial suspension (100 μL), the plates were incubated at 37 °C for 24 h, and the MICs were determined. The same protocol was used to determine the MICs in the presence of salts and serum except using the media supplemented with various cationic salts (150 mM NaCl, 4.5 mM KCl, 6 mM NH4Cl, 1 mM MgCl2, and 2 mM CaCl2) or 25% FBS. The data was acquired from three independent assays performed in triplicate.
(§2) The bacterial strains employed in this study were obtained from the American Type Culture Collection (ATCC). Each strain was propagated as recommended by the ATCC, and each strain was stored as a frozen glycerol stock at -80°C. A bacterial colony was grown on the appropriate agar as indicated in Table S1 and was used to inoculate the appropriate broth. The culture was incubated at the appropriate conditions, as mentioned in Table S1. Following the incubation, the culture was diluted to an optical density 625 nm (OD625) of 0.1 in cation adjusted Mueller Hinton Broth (CAMHB), which is equivalent to 1 × 10^8 CFU/mL. The culture was further diluted to 1 × 10^6 CFU/mL, which was used to conduct the MIC determination assay. For the S. pneumoniae strains, CAMHB + 2.5% lysed horse blood was required for the assay. The strains with their […]
(§3) Table S3. Description of the characteristics and growth conditions of various bacterial strains

[2] = system: K. pneumoniae (ATCCBAA-1705); assay: MIC, standard microtiter dilution (CLSI); assay type: cell-based, Klebsiella pneumoniae; conditions: broth microdilution (CLSI), CAMHB, 37 °C, 24 h
Protocol: as §1, §2, §3

S. aureus (ATCC 29213) = assay: MIC, standard microtiter dilution (CLSI); assay type: cell-based; conditions: broth microdilution (CLSI), CAMHB, 37 °C, 24 h
Protocol: as §1, §2, §3

[3] = CD spectroscopy, helicity; assay type: physicochemical; set-up: key to Δ[θ]222 induced by TFE / Δ[θ]222 induced by Liposomes: mean residue molar ellipticity, mdeg cm2/(dmol × res); conditions: for [θ]222 mean residue molar ellipticity, TFE / [θ]222 mean residue molar ellipticity, Liposomes / [θ]222 mean residue molar ellipticity, PBS: CD at 222 nm, 25 °C; for [θ]222 mean residue molar ellipticity, TFE: aqueous buffer containing 50% TFE; for [θ]222 mean residue molar ellipticity, Liposomes / Δ[θ]222 induced by Liposomes: bacterial membrane mimicking liposomes; for [θ]222 mean residue molar ellipticity, Liposomes: peptide:lipid molar ratio 1:1.05; for [θ]222 mean residue molar ellipticity, PBS: phosphate buffer saline pH 7.0; for Δ[θ]222 induced by TFE / Δ[θ]222 induced by Liposomes: difference to PBS; for Δ[θ]222 induced by TFE: 50% TFE; for % of helicity induced by TFE: increase in molar ellipticity at 222 nm in the presence of 50% TFE; for % of helicity induced by Liposomes: increase in molar ellipticity at 222 nm in the presence of liposomes;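 as to % of helicity induced by Liposomes: share of the total helicity with liposomes gained over the same peptide in PBS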;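 as to % of helicity induced by TFE: share of the total helicity in TFE gained over the same peptide in PBS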
Protocol: The CD spectra of peptides were recorded using a Jasco J-1500 CD spectrophotometer (Jasco, Easton, MD) at 25 °C with a 1 mm path length cell. Wavelengths from 190 to 260 nm were scanned with 1.0 nm step resolution, 100 nm/min speed, 0.4 s response time, and 1 nm bandwidth. CD spectra of the peptides were collected and averaged over three scans in 10 mM sodium phosphate buffer (pH 7.2), helix-inducing solvent 50% TFE (v/v), and bacterial mimic liposomes (75 μM lipid). Spectra were corrected by subtracting a baseline spectrum containing only buffer or 50% TFE or liposomes. The mean residue molar ellipticity was calculated using the formula [drawing 3] where Ab222 is the absorbance observed at 222 nm, MRW is the mean residue molecular weight, C is the concentration in mg/mL, and L is the path length.
Table S1. RP-HPLC retention times and CD spectroscopy analysis of the selected peptides Peptide tR (min)a [θ]222b Δ[θ]222 induced by % of helicity inducedc by PBS TFE Liposomes TFE Liposomes TFE Liposomes […]
atR (min) denotes the retention time at 25°C by RP-HPLC. bThe mean residue molar ellipticity [θ] 222 (mdeg cm2/(dmol × res)) at 222 nm was measured at 25 °C in phosphate buffer saline (PBS, pH 7.0), in aqueous buﬀer containing 50% TFE (TFE), or in presence of bacterial membrane mimicking liposomes (peptide:lipid […]
c% helix induced is the increase in the molar ellipticity at 222 nm (in percentage) of a peptide in the presence of TFE or liposomes.

[4] = system: human red blood cells (hRBCs); assay: Hemolytic assay; assay type: cell-based; conditions: 2 h, 37 °C
Protocol: The hemolytic activity of all peptides (1a–8d) was determined using hRBC. The assay was conducted by adding 75 μL of 2-fold serially diluted peptides to 75 μL of hRBC suspension (4% in PBS). The plates were incubated for 2 h at 37 °C without agitation. In order to determine the hemolysis at each tested concentration of peptides, the plate was centrifuged, and 100 μL of the supernatant was transferred to another 96-well plate to determine hemoglobin release spectrophotometrically at 567 nm. Percent hemolysis was calculated by the following formula [drawing 1] where A represents the absorbance of the peptide sample at 567 nm and A0 and At represent zero percent and 100% hemolysis determined in phosphate buffer saline and 1% Triton X-100, respectively.

E. coli (ATCC 25922) = conditions: broth microdilution (CLSI), CAMHB, 37 °C, 24 h
Protocol: as §1, §2, §3

MRSA (ATCC BAA-1556) = conditions: broth microdilution (CLSI), CAMHB, 37 °C, 24 h
Protocol: as §1, §2, §3

[5] = 10^6 CFU/mL, highest MIC of three independent experiments in triplicate
[6] = hRBC suspension 4% in PBS, hemoglobin release at 567 nm, 1% Triton X-100 = 100%
[7] = value in parentheses (μM), hRBC 4% in PBS, 567 nm

Row | Substance | MIC, P. aeruginosa (ATCC 27883) [1, 5] [µg/mL] | MIC, P. aeruginosa (ATCC 27883) ([1]; value in parentheses (μM)) [µM] | MIC, K. pneumoniae (ATCCBAA-1705) [2, 5] [µg/mL] | MIC, K. pneumoniae (ATCCBAA-1705) ([2]; value in parentheses (μM)) [µM] | MIC, S. aureus (ATCC 29213) (S. aureus (ATCC 29213); [5]) [µg/mL] | MIC, S. aureus (ATCC 29213) (S. aureus (ATCC 29213); value in parentheses (μM)) [µM] | [θ]222 mean residue molar ellipticity, TFE [3] | [θ]222 mean residue molar ellipticity, Liposomes [3] | [θ]222 mean residue molar ellipticity, PBS [3] | Δ[θ]222 induced by TFE [3] | Δ[θ]222 induced by Liposomes [3] | % of helicity induced by TFE [3] [%] | % of helicity induced by Liposomes [3] [%] | HC50 (concentration at which 50% hemolysis was observed) [4, 6] [µg/mL] | HC50 (concentration at which 50% hemolysis was observed) [4, 7] [µM] | MIC, E. coli (ATCC 25922) (E. coli (ATCC 25922); [5]) [µg/mL] | MIC, E. coli (ATCC 25922) (E. coli (ATCC 25922); value in parentheses (μM)) [µM] | MIC, MRSA (ATCC BAA-1556) (MRSA (ATCC BAA-1556); [5]) [µg/mL] | MIC, MRSA (ATCC BAA-1556) (MRSA (ATCC BAA-1556); value in parentheses (μM)) [µM]
1 | RAWRAWWRRA-NH2 [4f] | > 100 | > 70.74 | > 100 | > 70.74 | > 100 | > 70.74 | -7441 mdeg cm2/(dmol × res) | -4470 mdeg cm2/(dmol × res) | -3665 mdeg cm2/(dmol × res) | -3775 | -805 | 50.73 | 18.01 | > 500 | > 353.69 | > 100 | > 70.74 | > 100 | > 70.74
2 | RWLRRWLRWWR-NH2 [5d] | 50 | 28.26 | 50 | 28.26 | 25 | 14.13 | -10148 mdeg cm2/(dmol × res) | -5800 mdeg cm2/(dmol × res) | -4099 mdeg cm2/(dmol × res) | -6048 | -1700 | 59.60 | 29.31 | 130 | 73.48 | 50 | 28.26 | 25 | 14.13
3 | RWWRRAWAR-NH2 [3e] | > 100 | > 74.48 | > 100 | > 74.48 | > 100 | > 74.48 | -8008 mdeg cm2/(dmol × res) | -4987 mdeg cm2/(dmol × res) | -4113 mdeg cm2/(dmol × res) | -3895 | -874 | 48.63 | 17.53 | > 500 | > 372.42 | > 100 | > 74.48 | > 100 | > 74.48
4 | RWWRRWAR-NH2 [2a] | > 100 | > 78.65 | > 100 | > 78.65 | > 100 | > 78.65 | -6217 mdeg cm2/(dmol × res) | -4556 mdeg cm2/(dmol × res) | -4051 mdeg cm2/(dmol × res) | -2165 | -505 | 34.83 | 11.08 | > 500 | > 393.23 | > 100 | > 78.65 | > 100 | > 78.65
